Source: patent US11788086B2, “Antitumor compounds and tumor diagnosis” (CBMED GMBH CENTER FOR BIOMARKER RESEARCH IN MEDICINE, priority 2016, dated 2023)

Experiments:
colon cancer PDX models = test: Protein expression in colon cancer patients derived xenograft (PDX) models under chemotherapeutic treatment; assay type: in vivo, mice; conditions: not statistically significant
Experimental: Protein expression was analyzed in NP-40 tissue lysates. Therefore normalized protein amounts were loaded onto 8% or 12.5% polyacrylamide gels in consideration of the molecular mass of the protein of interest. Electrophoresis was performed for 1.5 h at 120 V in SDS Running Buffer with the Mini-vertical electrophoresis unit (Amersham Biosciences). Then separated proteins were transferred to PVDF-membranes (Immobilin-P Transfer Membran; Millipore) using a Semi Dry Blotting Unit (JH BioInnovations) at 160 mA for 1.5 hours. […] Immunoblots were evaluated semi-quantitative using ImageJ (Schneider C A, et al. Nat Meth. 9(2012):671-5) software for densitometric analyses. Relative densities were then calculated by normalizing density values for each protein to the loading control (Actin).
Samples of patients suffering from colon cancer or GBMs were transplanted into 3 to 6 immunodeficient NOD/SCID mice. The tumor growth was monitored in a daily rhythm. […] During chemosensitivity testing the tumor volume was measured regularly and used to generate growth curves. After a time period of 30-40 days the tumors were excised and analyzed by Immunoblot and Real-Time-PCR. […] Tumor volume of treatment in comparison to control (T/C) was calculated in percent.

rectum cancer PDX models = test: Protein expression in rectum cancer PDX models under chemotherapeutic treatment; assay type: in vivo, mice; conditions: not statistically significant
Experimental: (§1) Protein expression was analyzed in NP-40 tissue lysates. Therefore normalized protein amounts were loaded onto 8% or 12.5% polyacrylamide gels in consideration of the molecular mass of the protein of interest. Electrophoresis was performed for 1.5 h at 120 V in SDS Running Buffer with the Mini-vertical electrophoresis unit (Amersham Biosciences). Then separated proteins were transferred to PVDF-membranes (Immobilin-P Transfer Membran; Millipore) using a Semi Dry Blotting Unit (JH BioInnovations) at 160 mA for 1.5 hours. Membranes were blocked with 5% non-fat dried milk (AppliChem) in Tris-buffered saline-Tween (TBS-T; 0.2 M Tris, 1.4 M NaCl, pH 7.4, 0.1% Tween) for 1 h, followed by a primary antibody incubation (overnight at 4° C.) and an 1 h secondary antibody incubation (1:3000 dilution, GE Healthcare). All primary antibodies were diluted in 5% bovine serum albumin diluted in TBS-T. Between incubation steps membranes were washed 3 times in TBS-T for 10 min. Membranes were then developed with an enhanced chemiluminescence (ECL) Western blotting system (GE healthcare) using the ChemiImager™ System (Alpha Innotech). Immunoblots were evaluated semi-quantitative using ImageJ (Schneider C A, et al. Nat Meth. 9(2012):671-5) software for densitometric analyses. Relative densities were then calculated by normalizing density values for each protein to the loading control (Actin).
(§2) Samples of patients suffering from colon cancer or GBMs were transplanted into 3 to 6 immunodeficient NOD/SCID mice. The tumor growth was monitored in a daily rhythm. At a size of about 1 cm^3, the tumors were removed and transferred to naive NMRI:nu/nu mice for chemosensitivity testing. Xenotransplanted carcinomas and metastases were treated with different standard and novel chemotherapeutic drugs. During chemosensitivity testing the tumor volume was measured regularly and used to generate growth curves. After a time period of 30-40 days the tumors were excised and analyzed by Immunoblot and Real-Time-PCR. Chemosensitivity data were kindly provided by EPO Berlin-Buch GmbH. Tumor volume of treatment in comparison to control (T/C) was calculated in percent.
To analyze protein expression of different eIF subunits under chemotherapeutic treatment, 4 rectum primary carcinoma (RPC) PDX models and 2 rectum metastasis (RM) PDX model were generated.

eIF protein expression = eIF protein expression after chemosensitivity testings in murine GBM xenograft models (immunoblot); assay type: in vivo, mice; conditions: murine GBM xenografts; for eIF protein expression (eIF subunits overall): compared to PBS treated controls
Experimental: as §1, §2
Additionally to single treatments with each compound, combination therapies for Temozolomide/Everolimus, Temozolomide/Regorafenib and Temozolomide/Thalidomide were investigated.

hepatoma cell = conditions: in vivo and in vitro; cited from earlier work
tumor cells = conditions: eIF5A2 siRNA combined with GC7, HCC; cited from earlier work
[1] = rectum metastasis (RM) PDX models

Compound	eIF protein expression (eIF subunits overall) (eIF protein expression)	eIF3C protein expression (eIF protein expression; vs PBS control)	eIF3A protein expression (rectum cancer PDX models; [1])	other results
O=C1[O][Pt]2([NH][C@@H]3CCCC[C@H]3[NH]2)[O]C1=O [Oxaliplatin]	–	–	–	mTOR protein expression (colon cancer PDX models; colon primary carcinoma (CPC) PDX models, vs untreated control): trend to be upregulated; eIF4G protein expression (rectum cancer PDX models; rectum primary carcinoma (RPC) PDX): increased
CNC(=O)c1cc(Oc2ccc(NC(=O)Nc3ccc(Cl)c(C(F)(F)F)c3)cc2)ccn1 [Sorafenib]	almost no difference	upregulated	–	Mcl-1 protein (hepatoma cell): reduce; RAF/MEK/ERK signaling transduction pathway (hepatoma cell): inhibit; eIF4E phosphorylation level (hepatoma cell): reduce; hepatoma cell apoptosis (hepatoma cell): induce
NCCCCCCCN=C(N)N [GC7]	–	–	–	migration ability of tumor cells (tumor cells): effectively reduces
CCc1c2c(nc3ccc(OC(=O)N4CCC(N5CCCCC5)CC4)cc13)-c1cc3c(c(=O)n1C2)COC(=O)[C@]3(O)CC [Irinotecan]	differential effects	–	trend in downregulation	–
O=c1[nH]cc(F)c(=O)[nH]1 [5-FU]	–	–	trend in downregulation	–
CC[C@@H](C(=O)[C@@H](C)[C@@H](O)[C@H](C)[C@@H]1O[C@@H]([C@@H](CC)C(=O)O)CC[C@@H]1C)[C@H]1O[C@]2(C=C[C@@H](O)[C@]3(CC[C@@](C)([C@H]4CC[C@](O)(CC)[C@H](C)O4)O3)O2)[C@H](C)C[C@@H]1C [Salinomycin]	almost no difference	upregulated	–	–
CO[C@H]1C[C@@H]2CC[C@@H](C)[C@@](O)(O2)C(=O)C(=O)N2CCCC[C@H]2C(=O)O[C@H]([C@H](C)C[C@@H]2CC[C@@H](OCCO)[C@H](OC)C2)CC(=O)[C@H](C)/C=C(\C)[C@@H](O)[C@@H](OC)C(=O)[C@H](C)C[C@H](C)/C=C/C=C/C=C/1C [Everolimus]	almost no difference	upregulated	–	–
CNC(=O)c1cc(Oc2ccc(NC(=O)Nc3ccc(Cl)c(C(F)(F)F)c3)c(F)c2)ccn1 [Regorafenib]	totally down-regulated	–	trend in downregulation	–
O=C1CCC(N2C(=O)c3ccccc3C2=O)C(=O)N1 (stereo not shown) [Thalidomide]	almost no difference	upregulated	–	–
COC(=O)c1ccc2c(c1)NC(=O)/C2=C(\Nc1ccc(N(C)C(=O)CN2CCN(C)CC2)cc1)c1ccccc1 [Nintedanib]	–	–	trend in downregulation	eIF3J protein expression (rectum cancer PDX models; [1]): tendency to be downregulated
Bevacizumab: Anti-VEGF monoclonal antibody (angiogenesis inhibitor)	–	–	trend in downregulation	eIF3K protein expression (eIF protein expression; vs PBS control): down-regulation; PTEN protein expression (colon cancer PDX models; CM PDX model): seemed to be decreased
